Assay results taken from publication PMC5733478, “A Non-imaging High Throughput Approach to Chemical Library Screening at the Unmodified Adenosine-A3 Receptor in Living Cells” (Frontiers in Pharmacology, 2017).
Where a name gives a salt, the structure may show the parent alone.

biological target: T1, human A3AR (Homo sapiens, UniProt P0DMS8); test: LOPAC library primary screen: single concentration (10 μM) inhibition of 25 nM CA200645 binding, PHERAstar FS; conditions: not given
T1 construct: expressed in transfected cells
T1 sequence (P0DMS8 1-318): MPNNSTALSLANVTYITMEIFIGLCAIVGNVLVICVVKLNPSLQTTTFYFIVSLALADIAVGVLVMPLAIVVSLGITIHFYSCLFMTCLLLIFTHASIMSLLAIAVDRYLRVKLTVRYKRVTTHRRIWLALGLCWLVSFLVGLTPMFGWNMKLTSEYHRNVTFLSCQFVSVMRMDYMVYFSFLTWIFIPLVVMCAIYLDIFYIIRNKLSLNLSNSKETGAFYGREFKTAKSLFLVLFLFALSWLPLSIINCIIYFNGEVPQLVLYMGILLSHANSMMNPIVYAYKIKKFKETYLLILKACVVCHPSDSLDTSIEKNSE

Row | SMILES | % 25 nM CA200645 binding
1 | COc1cc(OC)cc(-c2cc3cnc(N)nc3nc2NC(=O)NC(C)(C)C)c1 [PD-166866] | 34.3 ± 9.7%
2 | O=C(O)Cc1ccccc1Nc1c(Cl)cccc1Cl [Diclofenac sodium] | 100.0 ± 12.4%
3 | CN(C)C(=O)N=NC(=O)N(C)C [N,N,N',N'-Tetramethylazodicarboxamide] | 95.9 ± 2.2%
4 | Clc1nccc2c1ccc1ccccc12 [CBIQ] | 87.1 ± 7.0%
5 | Cl.Fc1ccc(CN(C2=NCCN2)c2c(Cl)cccc2Cl)cc1 [IMID-4F hydrochloride] | 97.3 ± 5.7%
6 | N=C(N)N/N=C/c1c(Cl)cccc1Cl [Guanabenz acetate] | 98.2 ± 11.7%
7 | C#CCOC(=O)C1=CCCN(C)C1 [Arecaidine propargyl ester hydrobromide] | 96.0 ± 12.2%
8 | NC(=O)C(=O)O [Sodium Oxamate] | 96.5 ± 14.4%
9 | C[N+]1(C)[C@@H]2C[C@@H](OC(=O)[C@H](CO)c3ccccc3)C[C@H]1[C@@H]1O[C@@H]12 [(-)-Scopolamine methyl bromide] | 88.5 ± 14.0%
10 | C[C@H](Cc1ccc2c(c1)OC(C(=O)[O-])(C(=O)[O-])O2)NC[C@H](O)c1cccc(Cl)c1.[Na+].[Na+] [CL 316,243] | 38.7 ± 18.1%
11 | Cl.Clc1ccc(N2CCN(Cc3c[nH]c4ncccc34)CC2)cc1 [L-745,870 hydrochloride] | 105.7 ± 4.1%
12 | Nc1nc(N)c2nc(CNc3ccc(C(=O)N[C@@H](CCC(=O)O)C(=O)O)cc3)cnc2n1 [Aminopterin] | 91.1 ± 3.5%
13 | COC(=O)[C@H](NC(=O)c1cc(-c2ccccc2)nc2ccccc12)c1ccccc1 [SB 218795] | 51.1 ± 8.4%
14 | CCCn1c(=O)[nH]c(=O)c2nc[nH]c21 [3-n-Propylxanthine] | 101.0 ± 10.1%
15 | CCN(CC)CCCCNc1ncc2cc(-c3c(Cl)cccc3Cl)c(NC(=O)NC(C)(C)C)nc2n1 [PD-161570] | 90.7 ± 9.1%
16 | CC(=O)OC[C@H]1O[C@@H]([S-])[C@H](OC(C)=O)[C@@H](OC(C)=O)[C@@H]1OC(C)=O.CCP(CC)CC.[Au+] [Auranofin] | 82.1 ± 31.0%
17 | O=C(O)c1cc(O)cc(C(=O)O)n1 [Chelidamic acid] | 110.2 ± 8.8%
18 | CCN(CC)CCOc1ccc(Nc2ncc3cc(-c4c(Cl)cccc4Cl)c(=O)n(C)c3n2)cc1.O [PD-166285 hydrate] | 108.1 ± 4.5%
19 | Cn1c(=O)c2[nH]c(C3CCCC3)nc2n(C)c1=O [8-Cyclopentyl-1,3-dimethylxanthine] | 96.1 ± 9.6%
20 | CCCc1nn(C)c2c(=O)[nH]c(-c3cc(S(=O)(=O)N4CCN(C)CC4)ccc3OCC)nc12.O=C(O)CC(O)(CC(=O)O)C(=O)O [Sildenafil citrate salt] | 88.1 ± 8.0%
21 | NCCCC(=O)O [GABA] | 95.6 ± 8.2%
22 | CCc1cncnc1N1CCN(Cc2nc3ccc(C(F)(F)F)cc3[nH]2)CC1 [PF-4708671] | 99.2 ± 13.5%
23 | CC[C@H](CO)Nc1nc(NCc2ccccc2)c2ncn(C(C)C)c2n1 [Roscovitine] | 45.3 ± 8.6%

Row | SMILES | % 25 nM CA200645 binding
24 | C[N+](C)(C)CC#CCN1CCCC1=O [Oxotremorine methiodide] | 101.3 ± 18.6%
25 | O=[N+]([O-])c1cc(O)c(O)c([N+](=O)[O-])c1 [3,5-Dinitrocatechol] | 100.0 ± 11.8%
26 | O=[N+]([O-])/C=C/c1ccc2c(c1)OCO2 [MNS] | 50.1 ± 14.8%
27 | O=C(/C=C/c1ccc(O)c(O)c1)OCCc1ccccc1 [Caffeic acid phenethyl ester] | 79.3 ± 10.7%
28 | CC(C)(C)C(=O)Oc1ccc(S(=O)(=O)Nc2ccccc2C(=O)NCC(=O)[O-])cc1.[Na+] [Sivelestat sodium salt hydrate] | 96.6 ± 6.4%
29 | CCC1(c2ccc(N)cc2)CCC(=O)NC1=O (racemic) [(±)-p-Aminoglutethimide] | 94.1 ± 8.7%
30 | CCCCCCCCCC(=O)NC(CN1CCOCC1)[C@H](O)c1ccccc1.Cl (mixture of isomers) | 98.6 ± 11.0%
31 | C[C@]12C=CC(=O)C=C1CC[C@H]1[C@@H]3C[C@@H](O)[C@](O)(C(=O)CO)[C@@]3(C)C[C@H](O)[C@@]12F [Triamcinolone] | 95.9 ± 21.3%
32 | CCCCCCCCCC[Si](C)(C)CCC(=O)NC(Cc1ccc(C)cc1)c1ccccc1 (stereo not shown) [Sandoz 58-035] | 99.6 ± 12.7%
33 | CC[N+](CC)(CC)CC [Tetraethylammonium chloride] | 94.7 ± 8.6%
34 | O=C(O)CCC/C=C\C[C@@H]1[C@@H](/C=C/[C@H](O)C2Cc3ccccc3C2)[C@@H](F)C[C@@H]1O [AL-8810] | 75.0 ± 17.3%
35 | Cl.NCCc1ccc(O)cc1 [4-Hydroxyphenethylamine hydrochloride] | 98.7 ± 19.0%
36 | Cc1cc(N)c2ccccc2[n+]1CCCCCCCCCC[n+]1c(C)cc(N)c2ccccc21.[Cl-].[Cl-] [Dequalinium chloride hydrate] | 86.1 ± 10.0%
37 | CCOC(=O)N1CCC(=C2c3ccc(Cl)cc3CCc3cccnc32)CC1 [Loratadine] | 85.0 ± 1.8%
38 | Cc1nnc(SCC2=C(C(=O)O)N3C(=O)[C@@H](NC(=O)Cn4cnnn4)[C@H]3SC2)s1 [Cefazolin sodium] | 96.3 ± 4.6%
39 | OCCN(CCO)c1nc(N2CCCCC2)c2nc(N(CCO)CCO)nc(N3CCCCC3)c2n1 [Dipyridamole] | 78.8 ± 14.8%
40 | C[C@]12CCC(=O)C=C1CC[C@@H]1[C@@H]2C(=O)C[C@@]2(C)[C@H]1CC[C@]2(O)C(=O)CO [Cortisone] | 94.0 ± 5.3%
41 | Br.Br.CN(C)CCCc1cc(C(=O)Nc2ccc(-c3ccncc3)cc2)ccc1O [GR 55562 dihydrobromide] | 92.8 ± 13.3%
42 | Cc1cccc(C#Cc2ccccc2)n1.Cl | 95.8 ± 6.2%
43 | C[N+](C)(C)CCOC(=O)CCC(=O)OCC[N+](C)(C)C [Succinylcholine chloride] | 98.6 ± 15.7%
44 | COc1ccc(/C=C/C(=O)Nc2ccccc2C(=O)O)cc1OC [Tranilast] | 95.7 ± 1.4%
45 | CC(C)Cn1c(=O)n(C)c(=O)c2[nH]cnc21 [3-Isobutyl-1-methylxanthine] | 98.0 ± 7.1%
46 | O=C(O)CCC(=O)O.c1ccc(C2(c3ccccc3)CC2C2=NCCN2)cc1 (stereo not shown) [Cibenzoline succinate] | 95.2 ± 7.2%

Row | SMILES | % 25 nM CA200645 binding
47 | CO/N=C(\C(=O)N[C@@H]1C(=O)N2C(C(=O)O)=C(COC(C)=O)CS[C@H]12)c1csc(N)n1 [Cefotaxime sodium] | 94.2 ± 6.2%
48 | Cc1cccc(/C=C/c2ccccc2)n1 [SIB 1893] | 88.4 ± 9.6%
49 | O=C(O)Cc1ccc(O)c(O)c1 [3,4-Dihydroxyphenylacetic acid] | 97.0 ± 9.9%
50 | CCCN1C[C@H](CSC)C[C@@H]2c3cccc4[nH]cc(c34)C[C@H]21 [Pergolide methanesulfonate] | 82.8 ± 15.4%
51 | CN1[C@@H](CC(=O)c2ccccc2)CCC[C@H]1C[C@H](O)c1ccccc1.Cl [alpha-Lobeline hydrochloride] | 90.3 ± 6.6%
52 | Nc1nc(O)c2ncn(COC(CO)CO)c2n1 [Ganciclovir] | 96.3 ± 6.5%
53 | CN(C)C(=O)Oc1ccc[n+](C)c1 [Pyridostigmine bromide] | 92.0 ± 6.7%
54 | CN1CCC(c2c[nH]c3ccc(O)cc23)CC1.O=C(O)/C=C\C(=O)O [BRL 54443 maleate] | 102.8 ± 6.2%
55 | CCN(CC)CCNC(=O)c1ccc(NC(C)=O)cc1.Cl [N-Acetylprocainamide hydrochloride] | 86.4 ± 17.7%
56 | N[C@@H](Cc1c[nH]c2ccc(O)cc12)C(=O)O [5-Hydroxy-L-tryptophan] | 97.7 ± 1.5%
57 | CC[N+](C)(C)c1cccc(O)c1 [Edrophonium chloride] | 88.1 ± 20.0%
58 | NC(CO)C(=O)NNCc1ccc(O)c(O)c1O (stereo not shown) [Benserazide hydrochloride] | 98.9 ± 5.3%
59 | O=C(O)c1cc([N+](=O)[O-])ccc1NCCCc1ccccc1 | 120.8 ± 13.5%
60 | CN(C)CC[C@@H](c1ccc(Cl)cc1)c1ccccn1 [(+)-Chlorpheniramine maleate] | 96.8 ± 6.2%
61 | CCCCCCC(C(C)O)n1cnc2c(N)ncnc21.Cl (stereo not shown) | 80.7 ± 17.0%
62 | C[C@@]1(C2CCCC2)Cc2cc(OCC(=O)O)c(Cl)c(Cl)c2C1=O [R(+)-IAA-94] | 95.5 ± 13.0%
63 | Oc1ccc2c3c1O[C@H]1c4oc5ccccc5c4C[C@@]4(O)[C@@H](C2)N(CC2CC2)CC[C@]314 [Naltriben methanesulfonate] | 106.9 ± 8.0%
64 | Cc1cc2c(cc1Cl)N(C(=O)Nc1ccc(Oc3cccnc3C)nc1)CC2.Cl.Cl.O [SB 242084 dihydrochloride hydrate] | 49.6± 12.4%
65 | O=C(O)CCC(=O)N1CCC[C@H]1C(=O)O [N-Succinyl-L-proline] | 81.8 ± 11.2%
66 | CN(C)C(=O)[C@H](O)[C@H](Cc1ccccc1)NC(=O)c1cc2cc(Cl)ccc2[nH]1 [CP-91149] | 87.6 ± 14.6%
67 | N=C(N)c1ccc(OCCCCCOc2ccc(C(=N)N)cc2)cc1 [Pentamidine isethionate] | 100.3 ± 6.3%
68 | NCC1(CC(=O)O)CCCCC1 [Gabapentin] | 80.7 ± 22.8%

same assay, conditions: % of control wells (1% DMSO and 25 nM CA200645); compounds at 10 µM; whole live cells expressing the A3AR; mean ± SD, three experiments in duplicate

Row | SMILES | % 25 nM CA200645 binding
69 | O=C1NC(c2cccc([N+](=O)[O-])c2)=CCN1c1ccccc1O [Icilin] | 88.5 ± 5.8%
70 | OC(CN1CCC(Cc2ccc(F)cc2)CC1)c1ccc(Cl)cc1 (stereo not shown) [Eliprodil] | 98.8 ± 8.5%
